Measured values: US9670250B2, “Alpha-helical peptidomimetic inhibitors and methods using same” (The Trustees of the University of Pennsylvania, priority 2012, dated 2017)
Values belong to the compound of their own block, whether it stands above or below them. Starred links: 1 amine or outer side, 2 acyl side, 3 side chain; linkers in the order of their positions; H or OH if unused. Positions of bridges follow the written chain, without caps; N, C: chain ends. Residues, ends and D or L forms follow the SMILES beside them. mXylylene = c1cc(C[*:1])cc(C[*:2])c1

Key:
Type in all cases: biochemical
Cathepsin K = biological target: T1, Cathepsin K (Homo sapiens, UniProt P43235); experiment: in vitro fluorescence-based protease inhibition assay, cathepsin K
T1 sequence (P43235 115-329): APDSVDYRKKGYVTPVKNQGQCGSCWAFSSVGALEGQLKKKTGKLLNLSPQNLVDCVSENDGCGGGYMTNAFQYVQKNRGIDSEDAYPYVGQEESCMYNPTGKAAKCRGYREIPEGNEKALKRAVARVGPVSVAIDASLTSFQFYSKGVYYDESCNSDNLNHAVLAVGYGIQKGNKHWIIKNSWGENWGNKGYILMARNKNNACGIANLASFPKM
Description: (§1) Thus, the present invention includes a series of potent and highly specific α-helical inhibitors for papain family cysteine proteases. […] These short α-helical peptidomimetic inhibitors are modeled after the natural pro-domain sequence but contain a cysteine substitution at specific residues in i,i+4 positions, as shown in FIG. 2B. These cysteine residues are used for stabilization of the helix utilizing an appropriate linker (Muppidi, et al., 2011, Chem Commun (Camb) 47:9396-9398). After synthesis, each inhibitor was tested against its respective protease using an in vitro fluorescence-based assay. For each enzyme, at least one inhibitor was identified that is relatively potent and highly specific for its individual protease. These inhibitors can be modified or otherwise optimized to attain higher potency and selectivity through identification of key interactions between the inhibitor and the active site amino acid residues. Such optimization involves visual examination of the protease crystal structure, and substitution with either non-natural or natural amino acids to exploit possible crucial non-covalent protein ligand interactions, such as hydrogen bond, electrostatic, hydrophobic, and Van der Waals interactions.

Calpain (Calpain-1) = biological target: T2, Calpain (Calpain-1) (Homo sapiens, UniProt P07384); experiment: in vitro fluorescence-based protease inhibition assay, calpain
T2 sequence (P07384 1-714): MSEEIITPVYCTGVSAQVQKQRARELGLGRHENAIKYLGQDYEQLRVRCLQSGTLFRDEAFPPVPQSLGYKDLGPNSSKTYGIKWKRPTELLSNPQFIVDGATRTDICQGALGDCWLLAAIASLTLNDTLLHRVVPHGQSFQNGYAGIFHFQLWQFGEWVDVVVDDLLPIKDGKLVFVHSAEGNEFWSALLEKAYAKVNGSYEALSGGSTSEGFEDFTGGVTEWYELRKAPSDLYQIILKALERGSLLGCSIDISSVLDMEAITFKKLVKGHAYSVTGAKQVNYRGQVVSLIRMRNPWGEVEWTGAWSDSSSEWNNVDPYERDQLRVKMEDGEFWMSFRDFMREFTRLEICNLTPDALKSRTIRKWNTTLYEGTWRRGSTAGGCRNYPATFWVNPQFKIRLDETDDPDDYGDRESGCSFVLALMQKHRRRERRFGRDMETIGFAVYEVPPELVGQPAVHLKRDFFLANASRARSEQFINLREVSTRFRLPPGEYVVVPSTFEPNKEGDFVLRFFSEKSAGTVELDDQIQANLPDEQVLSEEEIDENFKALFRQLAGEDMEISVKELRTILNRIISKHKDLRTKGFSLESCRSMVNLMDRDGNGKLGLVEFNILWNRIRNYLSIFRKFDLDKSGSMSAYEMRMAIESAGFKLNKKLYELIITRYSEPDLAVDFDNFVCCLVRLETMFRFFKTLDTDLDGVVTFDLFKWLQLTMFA
T2 sequence (P04632 1-268 partner): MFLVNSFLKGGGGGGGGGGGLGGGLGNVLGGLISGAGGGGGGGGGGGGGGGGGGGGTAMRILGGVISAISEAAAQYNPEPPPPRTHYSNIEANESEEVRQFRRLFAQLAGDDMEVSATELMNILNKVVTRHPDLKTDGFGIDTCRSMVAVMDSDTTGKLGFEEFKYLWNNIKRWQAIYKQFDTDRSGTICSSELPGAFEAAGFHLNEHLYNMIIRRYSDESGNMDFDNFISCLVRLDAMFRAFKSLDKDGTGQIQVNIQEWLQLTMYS
Description: as §1

Cathepsin L = Cathepsin L (Homo sapiens, UniProt P07711); experiment: in vitro fluorescence-based protease inhibition assay, cathepsin L; settings: for Ki: Table 4, calpain inhibitors
Description: as §1

[1] = Table 2, cathepsin S inhibitors

Chain of Cathepsin L (P07711 114-333, species assumed): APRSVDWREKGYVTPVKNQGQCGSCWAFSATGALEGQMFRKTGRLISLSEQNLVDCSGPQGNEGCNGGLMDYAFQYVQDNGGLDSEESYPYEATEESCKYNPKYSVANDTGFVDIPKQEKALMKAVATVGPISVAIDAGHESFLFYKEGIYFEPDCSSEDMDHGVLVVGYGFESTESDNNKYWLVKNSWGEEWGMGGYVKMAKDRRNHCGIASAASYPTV

Cathepsin K activity (Cathepsin K; between 200-500 nM & 50 μM): 80% activity
Compound: 35 (SCELVCKMTGL) [compound 35]

effect on cathepsin K (inhibition or activation), in words (Cathepsin K): did not inhibit
Compound: CSCC[C@H](NC(=O)[C@H](CCCCN)NC(=O)[C@H](CCC(N)=O)NC(=O)[C@@H](NC(=O)[C@@H](NC(=O)[C@H](CCC(=O)O)NC(=O)[C@H](CCC(=O)O)NC(=O)[C@@H](N)CO)C(C)C)C(C)C)C(=O)N[C@H](C(=O)NCC(=O)N[C@@H](CC(C)C)C(=O)O)[C@@H](C)O [SEQ ID NO:32, SEEVVQKMTGL, reference compound] (H-SEEVVQKMTGL-OH)

Ki (Cathepsin K; [1]): > 100 µM
Ki (Calpain (Calpain-1); [1]): 108 ± 1.28 µM
Compound: CSCC[C@@H]1NC(=O)[C@H](CC(C)C)NC(=O)[C@H](CO)NC(=O)[C@@H](NC(=O)[C@@H](NC(=O)[C@H](CCC(=O)O)NC(=O)[C@H](CCC(=O)O)NC(=O)[C@H](CO)NC(=O)[C@@H](N)Cc2c[nH]c3ccccc23)C(C)C)CSCc2cccc(c2)CSC[C@@H](C(=O)N[C@@H](CO)C(=O)O)NC1=O [compound 17] (H-WSEEVCSLMCS-OH; linker 6-10 via mXylylene; N-terminus and C-terminus assumed)

Ki (Calpain (Calpain-1); [1]): 88.4 ± 1.13 µM
Compound: CSCC[C@@H]1NC(=O)[C@H](CC(C)C)NC(=O)[C@H](CO)NC(=O)[C@@H](NC(=O)[C@@H](NC(=O)[C@H](Cc2c[nH]c3ccccc23)NC(=O)[C@H](CCC(=O)O)NC(=O)[C@H](Cc2c[nH]c3ccccc23)NC(=O)[C@@H](N)[C@@H](C)O)C(C)C)CSCc2cccc(c2)CSC[C@@H](C(=O)N[C@@H](CO)C(=O)O)NC1=O [compound 23] (H-TWEWVCSLMCS-OH; linker 6-10 via mXylylene; N-terminus and C-terminus assumed)

Ki (Calpain (Calpain-1); [1]): 85.5 ± 1.3 µM
Compound: CSCC[C@@H]1NC(=O)[C@H](CC(C)C)NC(=O)[C@H](CO)NC(=O)[C@@H](NC(=O)[C@@H](NC(=O)[C@H](Cc2c[nH]c3ccccc23)NC(=O)[C@H](CCC(=O)O)NC(=O)[C@H](Cc2c[nH]c3ccccc23)NC(=O)[C@@H](N)Cc2c[nH]c3ccccc23)C(C)C)CSCc2cccc(c2)CSC[C@@H](C(=O)N[C@@H](CO)C(=O)O)NC1=O [compound 25] (H-WWEWVCSLMCS-OH; linker 6-10 via mXylylene; N-terminus and C-terminus assumed)

Ki (Cathepsin K; Table 4, calpain inhibitors): > 100 µM
Ki (Calpain (Calpain-1); Table 4, calpain inhibitors): 10.2 ± 2.9 µM
Compound: CC[C@H](C)[C@H](N)C(=O)N1CCC[C@H]1C(=O)N1CCC[C@H]1C(=O)N[C@@H](CCCCN)C(=O)N[C@@H](Cc1ccc(O)cc1)C(=O)N[C@H]1CSCc2cccc(c2)CSC[C@@H](C(=O)O)NC(=O)[C@H](CC(C)C)NC(=O)[C@H](CC(C)C)NC(=O)[C@H](CCC(=O)O)NC1=O [compound 65]

Ki (Cathepsin K; Table 4, calpain inhibitors): > 100 µM
Ki (Calpain (Calpain-1); Table 4, calpain inhibitors): 5.3 ± 1.9 µM
Compound: CC[C@H](C)[C@H](NC(=O)[C@@H](NC(=O)[C@@H](NC(=O)[C@@H](N)CCC(=O)O)C(C)C)[C@@H](C)O)C(=O)N1CCC[C@H]1C(=O)N1CCC[C@H]1C(=O)N[C@@H](CCCCN)C(=O)N[C@@H](Cc1ccc(O)cc1)C(=O)N[C@H]1CSCc2cccc(c2)CSC[C@@H](C(=O)O)NC(=O)[C@H](CC(C)C)NC(=O)[C@H](CC(C)C)NC(=O)[C@H](CCC(=O)O)NC1=O [compound 69] (H-EVTIPPKYCELLC-OH; linker 9-13 via mXylylene; N-terminus and C-terminus assumed)

Ki (Calpain (Calpain-1); Table 4, calpain inhibitors): 65.6 ± 20.5 µM
Ki (Cathepsin L): 12.5 ± 1.2 µM
Compound: CC(C)C[C@@H]1NC(=O)[C@H](CC(C)C)NC(=O)[C@H](CCC(=O)O)NC(=O)[C@@H](NC(=O)[C@H](Cc2ccc(O)cc2)NC(=O)[C@H](CCCCN)NC(=O)[C@@H]2CCCN2C(=O)[C@@H]2CCCN2C(=O)[C@H](C)N)CSCc2cccc(c2)CSC[C@@H](C(=O)O)NC1=O [compound 72] (H-APPKYCELLC-OH; linker 6-10 via mXylylene; N-terminus and C-terminus assumed)

Ki (Cathepsin K; Table 4, calpain inhibitors): > 100 µM
Ki (Calpain (Calpain-1); Table 4, calpain inhibitors): 11 ± 3.6 µM
Compound: CC(C)C[C@@H]1NC(=O)[C@H](CC(C)C)NC(=O)[C@H](CCC(=O)O)NC(=O)[C@@H](NC(=O)[C@H](Cc2ccc(O)cc2)NC(=O)[C@H](CCCCN)NC(=O)[C@@H]2CCCN2C(=O)[C@@H]2CCCN2C(=O)[C@@H](N)CC(C)C)CSCc2cccc(c2)CSC[C@@H](C(=O)O)NC1=O [compound 74] (H-LPPKYCELLC-OH; linker 6-10 via mXylylene; N-terminus and C-terminus assumed)

Ki (Calpain (Calpain-1); Table 4, calpain inhibitors): 35 ± 10.4 µM
Compound: CC(C)C[C@@H]1NC(=O)[C@H](CC(C)C)NC(=O)[C@H](CCC(=O)O)NC(=O)[C@@H](NC(=O)[C@H](Cc2ccc(O)cc2)NC(=O)[C@H](CCCCN)NC(=O)[C@@H]2CCCN2C(=O)[C@@H]2CCCN2C(=O)[C@@H](N)CCC(N)=O)CSCc2cccc(c2)CSC[C@@H](C(=O)O)NC1=O [compound 76] (H-QPPKYCELLC-OH; linker 6-10 via mXylylene; N-terminus and C-terminus assumed)

Ki (Cathepsin K; Table 4, calpain inhibitors): > 100 µM
Ki (Calpain (Calpain-1); Table 4, calpain inhibitors): 5.3 ± 2 µM
Compound: CC[C@H](C)[C@H](N)C(=O)N1CCC[C@H]1C(=O)N1CCC[C@H]1C(=O)N[C@@H](CCCNC(=N)N)C(=O)N[C@@H](Cc1ccc(O)cc1)C(=O)N[C@H]1CSCc2cccc(c2)CSC[C@@H](C(=O)O)NC(=O)[C@H](CC(C)C)NC(=O)[C@H](CC(C)C)NC(=O)[C@H](CCC(=O)O)NC1=O [compound 80] (H-IPPRYCELLC-OH; linker 6-10 via mXylylene; N-terminus and C-terminus assumed)

Ki (Calpain (Calpain-1); Table 4, calpain inhibitors): > 100 µM
Compound: CC[C@H](C)[C@H](N)C(=O)N1CCC[C@H]1C(=O)N1CCC[C@H]1C(=O)N[C@@H](CCCCN)C(=O)N[C@@H](C)C(=O)N[C@H]1CSCc2cccc(c2)CSC[C@@H](C(=O)O)NC(=O)[C@H](CC(C)C)NC(=O)[C@H](CC(C)C)NC(=O)[C@H](CCC(=O)O)NC1=O [compound 81] (H-IPPKACELLC-OH; linker 6-10 via mXylylene; N-terminus and C-terminus assumed)

Ki (Calpain (Calpain-1); Table 4, calpain inhibitors): 28.9 ± 9.1 µM
Ki (Cathepsin L): 12.5 ± 1.1 µM
Compound: CC[C@H](C)[C@H](N)C(=O)N1CCC[C@H]1C(=O)N1CCC[C@H]1C(=O)N[C@@H](CCCCN)C(=O)N[C@@H](Cc1ccc(O)cc1)C(=O)N[C@H]1CSCc2cccc(c2)CSC[C@@H](C(=O)O)NC(=O)[C@H](CC(C)C)NC(=O)[C@H](CC(C)C)NC(=O)[C@H](C)NC1=O [compound 84] (H-IPPKYCALLC-OH; linker 6-10 via mXylylene; N-terminus and C-terminus assumed)

Ki (Cathepsin K; Table 4, calpain inhibitors): > 100 µM
Ki (Calpain (Calpain-1); Table 4, calpain inhibitors): 11 ± 3.6 µM
Compound: CC[C@H](C)[C@H](N)C(=O)N1CCC[C@H]1C(=O)N1CCC[C@H]1C(=O)N[C@@H](CCCCN)C(=O)N[C@@H](Cc1ccc(O)cc1)C(=O)N[C@H]1CSCc2cccc(c2)CSC[C@@H](C(=O)O)NC(=O)[C@H](CC(C)C)NC(=O)[C@H](CCC(N)=O)NC(=O)[C@H](CCC(=O)O)NC1=O [compound 85] (H-IPPKYCEQLC-OH; linker 6-10 via mXylylene; N-terminus and C-terminus assumed)

Ki (Calpain (Calpain-1); Table 4, calpain inhibitors): 30.9 ± 9.2 µM
Compound: CC[C@H](C)[C@H](N)C(=O)N1CCC[C@H]1C(=O)N1CCC[C@H]1C(=O)N[C@@H](CCCCN)C(=O)N[C@@H](Cc1ccc(O)cc1)C(=O)N[C@H]1CSCc2cccc(c2)CSC[C@@H](C(=O)O)NC(=O)[C@H](CC(C)C)NC(=O)[C@H](C)NC(=O)[C@H](CCC(=O)O)NC1=O [compound 86] (H-IPPKYCEALC-OH; linker 6-10 via mXylylene; N-terminus and C-terminus assumed)

cathepsin L inhibitory activity, in words (Cathepsin L): low activity
Compound: SECFRQCMNGF [SEQ ID NO:2]

cathepsin L inhibitory activity, in words (Cathepsin L): no inhibitory activity
Compound: SEEFRQVMNGF [SEQ ID NO:1, reference compound]
